Experimental findings from US12240862B2, “Inhibitors of peptidylarginine deiminases” (Gilead Sciences, Inc., priority 2020, dated 2025) are described below.

Molecules are shown by their SMILES.

This assay deals with T1, human PAD4 (Homo sapiens, UniProt Q9UM07).
T1 construct: human PAD4 (NM_012387), A2P663, was PCR amplified; His-SUMO (N, cleaved yes); made in house; host or cells: E. coli BL21(DE3)
T1 sequence (Q9UM07 2-663): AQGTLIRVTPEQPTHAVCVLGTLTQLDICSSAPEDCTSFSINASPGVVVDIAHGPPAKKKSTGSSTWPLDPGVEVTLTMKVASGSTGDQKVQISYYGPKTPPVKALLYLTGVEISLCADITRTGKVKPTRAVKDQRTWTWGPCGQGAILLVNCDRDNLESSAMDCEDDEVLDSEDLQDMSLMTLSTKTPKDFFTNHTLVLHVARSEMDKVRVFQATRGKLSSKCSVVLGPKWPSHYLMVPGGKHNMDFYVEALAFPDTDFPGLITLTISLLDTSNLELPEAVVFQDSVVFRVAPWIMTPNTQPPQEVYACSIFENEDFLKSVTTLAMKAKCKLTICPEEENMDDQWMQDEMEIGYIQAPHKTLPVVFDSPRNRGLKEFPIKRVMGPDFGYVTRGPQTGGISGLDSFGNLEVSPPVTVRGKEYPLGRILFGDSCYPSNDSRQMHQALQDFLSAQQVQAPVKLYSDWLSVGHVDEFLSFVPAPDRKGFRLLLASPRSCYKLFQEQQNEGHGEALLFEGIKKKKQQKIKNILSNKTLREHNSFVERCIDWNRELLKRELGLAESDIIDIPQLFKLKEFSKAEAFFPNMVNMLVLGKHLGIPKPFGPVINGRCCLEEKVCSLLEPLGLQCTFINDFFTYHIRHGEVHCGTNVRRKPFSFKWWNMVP
The experiment in a line: In vitro PAD4 BAEE biochemical assay. As to conditions: human PAD4, BAEE substrate; 5 nM PAD4, 2 mM calcium chloride, 3 mM BAEE; geometric mean of multiple experiments. The procedure, abridged: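 Tag-free recombinant hPAD4 (5 nM), 2 mM CaCl2, 3 mM BAEE, 50 mM MOPS pH 7.6, 2 mM DTT; 30 min compound preincubation, 2 h reaction, all 25 °C. EDTA quench; ammonia read via o-phthalaldehyde amine coupling, 1 h.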
For the compound `COc1cc(C(=O)N2C[C@H]3C[C@@]3(N)C2)cc2nc(-c3cc4ccc([C@@H](C)NC(=O)C56CC(F)(C5)C6)nc4n3CC3CC3)c(C)n12` [Example 24, ~{N}-[(1~{R})-1-[2-[7-[(1~{S},5~{R})-1-amino-3-azabicyclo [3.1.0]hexane-3-carbonyl]-5-methoxy-3-methylimidazo [1,2-a]pyridin-2-yl]-1-(cyclopropylmethyl)pyrrolo[2,3-b]pyridin-6-yl]ethyl]-3-fluorobicyclo[1.1.1] pentane-1-carboxamide], the IC50 stood at 9010 nM.

With `COc1cc(C(=O)N2C[C@H](N)CC[C@@H]2C)cc2nc(-c3cc4ccc(N(C(F)F)S(C)(=O)=O)nc4n3CC3CC3)c(CC3CC3)n12` [Example 405, ~{N}-[2-[7-[(2~{S},5~{R})-5-amino-2-methylpiperidine-1-carbonyl]-3-(cyclopropylmethyl)-5-methoxyimidazo[1,2-a]pyridin-2-yl]-1-(cyclopropylmethyl)pyrrolo [2,3-b]pyridin-6-yl]-~{N}-(difluoromethyl) methanesulfonamide], the IC50 worked out at 589 nM.

As for `COc1cc(C(=O)N2[C@H]3CC[C@@H]2[C@H](N)C3)cc2nc(-c3cc4ccc(N5C[C@H](C)OCS5(=O)=O)nc4n3CC3CC3)c(C)n12` [Example 441, [(1~{R},2~{R},4~{S})-2-amino-7-azabicyclo [2.2.1]heptan-7-yl]-[2-[1-(cyclopropylmethyl)-6-[(6~{S})-6-methyl-3,3-dioxo-1,3,4-oxathiazinan-4-yl]pyrrolo[2,3-b]pyridin-2-yl]-5-methoxy-3-methylimidazo[1,2-a]pyridin-7-yl]methanone], the IC50 amounted to 73.1 nM.

With `COc1cc(C(=O)N2[C@H]3CC[C@@H]2[C@H](N)C3)cc2nc(-c3cc4ccc([C@@H](C)NC(=O)[C@H](C)OC)nc4n3CC3CC3)c(C)n12` [Example 34, (2~{S})-~{N}-[(1~{R})-1-[2-[7-[(1~{R},2~{R}, 4~{S})-2-amino-7-azabicyclo[2.2.1]heptane-7-carbonyl]-5-methoxy-3-methylimidazo [1,2-a]pyridin-2-yl]-1-(cyclopropylmethyl)pyrrolo[2,3-b]pyridin-6-yl]ethyl]-2-methoxypropanamide], the IC50 came out at 57.9 nM.

As for `COc1cc(C(=O)N2[C@H]3CC[C@@H]2[C@H](N)C3)cc2nc(-c3cc4ccc([C@@H](C)NC(=O)C(C)(C)C(=O)O)nc4n3CC3CC3)c(C)n12` [Example 155, 3-[[(1~{R})-1-[2-[7-[(1~{R},2~{R},4~{S})-2-amino-7-azabicyclo[2.2.1]heptane-7-carbonyl]-5-methoxy-3-methylimidazo [1,2-a]pyridin-2-yl]-1-(cyclopropylmethyl)pyrrolo [2,3-b]pyridin-6-yl]ethyl]amino]-2,2-dimethyl-3-oxopropanoic acid], the half-maximal inhibitory concentration (IC50) amounted to 45.5 nM.

Regarding `COc1cc(C(=O)N2C[C@H](N)[C@@H](F)C2)cc2nc(-c3cc4ccc(N(C(F)F)S(C)(=O)=O)nc4n3CC3CC3)c(C)n12` [Example 290, ~{N}-[2-[7-[(3~{S}, 4~{S})-3-amino-4-fluoropyrrolidine-1-carbonyl]-5-methoxy-3-methylimidazo [1,2-a]pyridin-2-yl]-1-(cyclopropylmethyl)pyrrolo [2,3-b]pyridin-6-yl]-~{N}-(difluoromethyl) methanesulfonamide], the IC50 is 9870 nM.

Consider `CCCO[C@@H]1CCN(C(=O)c2cc(OC)n3c(C)c(-c4cc5ccc([C@@H](C)NC(=O)c6ccccc6)nc5n4CC4CC4)nc3c2)C[C@@H]1N` [Example 111, ~{N}-[(1~{R})-1-[2-[7-[(3~{S},4~{R})-3-amino-4-propoxypiperidine-1-carbonyl]-5-methoxy-3-methylimidazo[1,2-a]pyridin-2-yl]-1-(cyclopropylmethyl)pyrrolo [2,3-b]pyridin-6-yl]ethyl] benzamide], for which the IC50 came to 305 nM.

Consider `COc1cc(C(=O)N2[C@H]3CC[C@@H]2[C@H](N)C3)cc2nc(-c3cc4ccc([C@@H](C)NC(=O)N5CCC(F)(F)CC5)nc4n3CC3CC3)c(C)n12` [Example 207, ~{N}-[(1~{R})-1-[2-[7-[(1~{R},2~{R},4~{S})-2-amino-7-azabicyclo[2.2.1]heptane-7-carbonyl]-5-methoxy-3-methylimidazo [1,2-a]pyridin-2-yl]-1-(cyclopropylmethyl)pyrrolo [2,3-b]pyridin-6-yl]ethyl]-4,4-difluoropiperidine-1-carboxamide], for which the IC50 stood at 46 nM.

For the compound `COc1cc(C(=O)N2[C@H]3CC[C@@H]2[C@H](N)C3)cc2nc(-c3cc4ccc(N5[C@H](C)CCCS5(=O)=O)nc4n3CC3CC3)c(C)n12` [Example 463, [(1~{R},2~{R},4~{S})-2-amino-7-azabicyclo [2.2.1]heptan-7-yl]-[2-[1-(cyclopropylmethyl)-6-[(3~{R})-3-methyl-1,1-dioxothiazinan-2-yl]pyrrolo[2,3-b]pyridin-2-yl]-5-methoxy-3-methylimidazo [1,2-a]pyridin-7-yl] methanone], the IC50 was determined as 133 nM.

On to `CS(=O)(=O)N(c1ccc2cc(-c3nc4cc(C(=O)N5CC[C@@H](O)[C@@H](N)C5)ccn4c3C3CC3)n(CC3CC3)c2n1)C(F)F` [Example 395, ~{N}-[2-[7-[(3~{S},4~{R})-3-amino-4-hydroxypiperidine-1-carbonyl]-3-cyclopropylimidazo[1,2-a]pyridin-2-yl]-1-(cyclopropylmethyl)pyrrolo [2,3-b]pyridin-6-yl]-~{N}-(difluoromethyl) methanesulfonamide], for which the IC50 turned out to be 259 nM.

With `COc1cc(C(=O)N2[C@H]3CC[C@@H]2[C@H](N)C3)cc2nc(-c3cc4ccc([C@@H](C)NC(=O)c5ccnc(C)c5)nc4n3CC3CC3)c(C)n12` [Example 47, ~{N}-[(1~{R})-1-[2-[7-[(1~{R},2~{R},4~{S})-2-amino-7-azabicyclo[2.2.1]heptane-7-carbonyl]-5-methoxy-3-methylimidazo [1,2-a]pyridin-2-yl]-1-(cyclopropylmethyl)pyrrolo[2,3-b]pyridin-6-yl]ethyl]-2-methylpyridine-4-carboxamide], the IC50 stood at 24.2 nM.

In the case of `COc1cc(C(=O)N2C[C@H]3CCC[C@@H]2[C@@H]3N)cc2nc(-c3cc4ccc(N(C(F)F)S(C)(=O)=O)nc4n3CC3CC3)c(C)n12` [Example 330, N-[2-[7-[(1R,5R,8R)-8-amino-6-azabicyclo[3.2.1]octane-6-carbonyl]-5-methoxy-3-methyl-imidazo [1,2-a]pyridin-2-yl]-1-(cyclopropylmethyl)pyrrolo [2,3-b]pyridin-6-yl]-N-(difluoromethyl) methanesulfonamide], the IC50 was found to be 233 nM.

With `COc1cc(C(=O)N2C[C@H](N)CC[C@@H]2C)cc2nc(-c3cc4ccc(-c5c(C)n[nH]c5C)nc4n3CC3CC3)c(C)n12` [Example 611, [(2~{S},5~{R})-5-amino-2-methylpiperidin-1-yl]-[2-[1-(cyclopropylmethyl)-6-(3,5-dimethyl-1~{H}-pyrazol-4-yl)pyrrolo[2,3-b]pyridin-2-yl]-5-methoxy-3-methylimidazo[1,2-a]pyridin-7-yl]methanone], the IC50 was found to be 726 nM.

On to `COc1cc(C(=O)N2CCCC(C)(N)C2)cc2nc(-c3cc4ccc([C@@H](C)NC(=O)C56CC(F)(C5)C6)nc4n3CC3CC3)c(C3CC3)n12` (stereo partly drawn) [Example 124, ~{N}-[(1~{R})-1-[2-[7-(3-amino-3-methylpiperidine-1-carbonyl)-3-cyclopropyl-5-methoxyimidazo [1,2-a]pyridin-2-yl]-1-(cyclopropylmethyl)pyrrolo [2,3-b]pyridin-6-yl]ethyl]-3-fluorobicyclo[1.1.1]pentane-1-carboxamide], for which the IC50 stood at 13000 nM.

Regarding `COc1cc(C(=O)N2C[C@@H](F)[C@@H](N)C2)cc2nc(-c3cc4ccc(N(C(F)F)S(C)(=O)=O)nc4n3CC3CC3)c(C)n12` [Example 291, ~{N}-[2-[7-[(3~{S}, 4~{R})-3-amino-4-fluoropyrrolidine-1-carbonyl]-5-methoxy-3-methylimidazo [1,2-a]pyridin-2-yl]-1-(cyclopropylmethyl)pyrrolo [2,3-b]pyridin-6-yl]-~{N}-(difluoromethyl) methanesulfonamide], the half-inhibitory concentration (IC50) is 6360 nM.

Consider `COc1cc(C(=O)N2[C@H]3CC[C@@H]2[C@H](N)C3)cc2nc(-c3cc4ccc([C@@H](C)NC(=O)N5CCO[C@H](C)C5)nc4n3CC3CC3)c(C)n12` [Example 210, (2~{R})-~{N}-[(1~{R})-1-[2-[7-[(1~{R},2~{R}, 4~{S})-2-amino-7-azabicyclo[2.2.1]heptane-7-carbonyl]-5-methoxy-3-methylimidazo [1,2-a]pyridin-2-yl]-1-(cyclopropylmethyl)pyrrolo [2,3-b]pyridin-6-yl]ethyl]-2-methylmorpholine-4-carboxamide], for which the IC50 came out at 39.7 nM.

Turning to `COc1cc(C(=O)NC2C3CCCNC32)cc2nc(-c3cc4ccc(N(C(F)F)S(C)(=O)=O)nc4n3CC3CC3)c(C)n12` (stereo not drawn) [Example 339, ~{N}-(2-azabicyclo[4.1.0]heptan-7-yl)-2-[1-(cyclopropylmethyl)-6-[difluoromethyl (methylsulfonyl)amino]pyrrolo[2,3-b]pyridin-2-yl]-5-methoxy-3-methylimidazo[1,2-a]pyridine-7-carboxamide], the IC50 was 21500 nM.

`COc1cc(C(=O)N2C[C@H]3CNCC[C@H]32)cc2nc(-c3cc4ccc(N(C(F)F)S(C)(=O)=O)nc4n3CC3CC3)c(C)n12` [Example 284, ~{N}-[1-(cyclopropylmethyl)-2-[7-[(1~{R},6~{R})-3,7-diazabicyclo[4.2.0]octane-7-carbonyl]-5-methoxy-3-methylimidazo[1,2-a]pyridin-2-yl]pyrrolo[2,3-b]pyridin-6-yl]-~{N}-(difluoromethyl) methanesulfonamide]: the IC50 came out at 13400 nM.

One may read the IC50 as the midpoint of a concentration-inhibition curve.
